What was measured:
[1] = molecular target: Beta-1 adrenergic receptor (Homo sapiens, UniProt P08588); type: functional
[2] = molecular target: 5-hydroxytryptamine receptor 2B (Homo sapiens, UniProt P41595); type: functional, cell-based
[3] = molecular target: 5-hydroxytryptamine receptor 2A (Homo sapiens, UniProt P28223); type: functional, cell-based
Vasopressin V2 receptor = Vasopressin V2 receptor (Homo sapiens, UniProt P30518)
Histamine H1 receptor = Histamine H1 receptor (Homo sapiens, UniProt P35367)
Sequence of Histamine H1 receptor (P35367 whole entry): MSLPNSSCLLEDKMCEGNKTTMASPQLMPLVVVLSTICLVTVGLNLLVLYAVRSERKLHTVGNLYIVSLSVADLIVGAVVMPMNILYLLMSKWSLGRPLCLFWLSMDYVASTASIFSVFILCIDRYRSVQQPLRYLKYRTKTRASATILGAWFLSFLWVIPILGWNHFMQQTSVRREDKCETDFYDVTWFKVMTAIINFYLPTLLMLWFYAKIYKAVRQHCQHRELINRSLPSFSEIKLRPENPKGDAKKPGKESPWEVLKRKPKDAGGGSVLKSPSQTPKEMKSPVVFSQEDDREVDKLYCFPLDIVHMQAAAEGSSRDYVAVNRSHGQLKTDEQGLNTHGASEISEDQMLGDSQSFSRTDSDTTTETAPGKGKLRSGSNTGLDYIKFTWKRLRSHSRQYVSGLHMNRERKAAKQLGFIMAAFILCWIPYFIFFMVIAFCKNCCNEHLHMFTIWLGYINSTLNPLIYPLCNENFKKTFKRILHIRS

[4] = molecular target: T1, Equilibrative nucleoside transporter 1 (Homo sapiens, UniProt Q99808)
T1 sequence (Q99808 whole entry): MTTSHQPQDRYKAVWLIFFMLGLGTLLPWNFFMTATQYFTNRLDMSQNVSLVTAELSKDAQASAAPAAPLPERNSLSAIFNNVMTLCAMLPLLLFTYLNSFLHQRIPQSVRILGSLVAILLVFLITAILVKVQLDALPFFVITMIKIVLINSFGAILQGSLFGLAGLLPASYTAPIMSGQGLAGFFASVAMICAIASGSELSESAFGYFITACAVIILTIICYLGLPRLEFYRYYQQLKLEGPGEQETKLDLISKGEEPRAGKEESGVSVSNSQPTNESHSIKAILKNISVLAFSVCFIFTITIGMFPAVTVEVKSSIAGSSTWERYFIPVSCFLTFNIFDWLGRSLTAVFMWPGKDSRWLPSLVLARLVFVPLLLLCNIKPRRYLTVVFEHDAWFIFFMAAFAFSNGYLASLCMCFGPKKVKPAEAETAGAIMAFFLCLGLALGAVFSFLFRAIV

D(1A) dopamine receptor = D(1A) dopamine receptor (Homo sapiens, UniProt P21728); type: functional, cell-based
Sequence of D(1A) dopamine receptor (P21728 whole entry): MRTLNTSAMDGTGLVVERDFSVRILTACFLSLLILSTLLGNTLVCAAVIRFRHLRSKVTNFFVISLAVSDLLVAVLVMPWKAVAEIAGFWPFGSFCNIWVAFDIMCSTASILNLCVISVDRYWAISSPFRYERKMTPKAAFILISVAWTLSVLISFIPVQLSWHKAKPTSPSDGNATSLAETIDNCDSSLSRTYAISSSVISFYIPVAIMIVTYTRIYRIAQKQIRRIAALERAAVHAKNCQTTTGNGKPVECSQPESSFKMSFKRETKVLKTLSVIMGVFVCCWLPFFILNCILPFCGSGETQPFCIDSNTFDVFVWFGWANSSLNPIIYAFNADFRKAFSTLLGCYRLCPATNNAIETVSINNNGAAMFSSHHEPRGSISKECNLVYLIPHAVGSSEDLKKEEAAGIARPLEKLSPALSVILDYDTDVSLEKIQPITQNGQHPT

[5] = molecular target: T2, Alpha-2B adrenergic receptor (Homo sapiens, UniProt P18089)
T2 sequence (P18089 whole entry): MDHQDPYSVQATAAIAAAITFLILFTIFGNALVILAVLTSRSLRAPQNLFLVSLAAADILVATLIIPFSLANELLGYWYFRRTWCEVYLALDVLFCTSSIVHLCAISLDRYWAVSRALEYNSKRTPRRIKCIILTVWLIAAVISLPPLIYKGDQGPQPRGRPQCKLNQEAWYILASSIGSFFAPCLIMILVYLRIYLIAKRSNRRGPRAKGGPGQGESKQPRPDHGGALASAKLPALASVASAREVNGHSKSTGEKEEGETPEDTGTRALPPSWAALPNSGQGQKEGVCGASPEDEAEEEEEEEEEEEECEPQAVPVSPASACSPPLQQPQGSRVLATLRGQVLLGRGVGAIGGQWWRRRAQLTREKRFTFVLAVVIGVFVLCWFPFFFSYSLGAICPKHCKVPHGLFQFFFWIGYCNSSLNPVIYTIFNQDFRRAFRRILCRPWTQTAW

[6] = molecular target: T3, 5-hydroxytryptamine receptor 1A (Homo sapiens, UniProt P08908); type: functional, cell-based
T3 sequence (P08908 whole entry): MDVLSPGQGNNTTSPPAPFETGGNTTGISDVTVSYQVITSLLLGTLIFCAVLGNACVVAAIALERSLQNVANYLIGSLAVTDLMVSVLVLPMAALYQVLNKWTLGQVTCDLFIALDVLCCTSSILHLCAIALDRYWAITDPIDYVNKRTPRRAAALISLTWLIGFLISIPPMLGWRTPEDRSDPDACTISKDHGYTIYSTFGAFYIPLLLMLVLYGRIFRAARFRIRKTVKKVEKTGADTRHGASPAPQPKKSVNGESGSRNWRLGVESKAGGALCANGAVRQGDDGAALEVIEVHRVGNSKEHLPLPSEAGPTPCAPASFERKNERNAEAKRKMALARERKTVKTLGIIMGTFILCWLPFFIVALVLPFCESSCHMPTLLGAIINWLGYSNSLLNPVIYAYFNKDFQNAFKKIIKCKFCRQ

[7] = molecular target: T4, Alpha-1A adrenergic receptor (Homo sapiens, UniProt P35348); type: functional, cell-based
T4 sequence (P35348 whole entry): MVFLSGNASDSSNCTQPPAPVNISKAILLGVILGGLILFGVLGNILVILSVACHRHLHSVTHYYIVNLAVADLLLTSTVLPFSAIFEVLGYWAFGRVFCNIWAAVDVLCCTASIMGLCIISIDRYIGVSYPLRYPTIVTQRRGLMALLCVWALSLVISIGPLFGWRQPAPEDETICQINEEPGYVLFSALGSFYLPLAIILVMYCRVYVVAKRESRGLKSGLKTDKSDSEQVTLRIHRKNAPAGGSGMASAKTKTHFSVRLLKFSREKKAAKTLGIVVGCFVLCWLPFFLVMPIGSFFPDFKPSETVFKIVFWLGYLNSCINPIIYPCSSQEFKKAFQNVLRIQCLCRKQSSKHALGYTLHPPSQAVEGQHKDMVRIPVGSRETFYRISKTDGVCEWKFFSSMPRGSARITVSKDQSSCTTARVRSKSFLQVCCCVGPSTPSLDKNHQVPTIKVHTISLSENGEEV

[8] = molecular target: Neuronal acetylcholine receptor subunit alpha-4 (Homo sapiens, UniProt P43681)
Sequence of Neuronal acetylcholine receptor subunit alpha-4 (P43681 whole entry): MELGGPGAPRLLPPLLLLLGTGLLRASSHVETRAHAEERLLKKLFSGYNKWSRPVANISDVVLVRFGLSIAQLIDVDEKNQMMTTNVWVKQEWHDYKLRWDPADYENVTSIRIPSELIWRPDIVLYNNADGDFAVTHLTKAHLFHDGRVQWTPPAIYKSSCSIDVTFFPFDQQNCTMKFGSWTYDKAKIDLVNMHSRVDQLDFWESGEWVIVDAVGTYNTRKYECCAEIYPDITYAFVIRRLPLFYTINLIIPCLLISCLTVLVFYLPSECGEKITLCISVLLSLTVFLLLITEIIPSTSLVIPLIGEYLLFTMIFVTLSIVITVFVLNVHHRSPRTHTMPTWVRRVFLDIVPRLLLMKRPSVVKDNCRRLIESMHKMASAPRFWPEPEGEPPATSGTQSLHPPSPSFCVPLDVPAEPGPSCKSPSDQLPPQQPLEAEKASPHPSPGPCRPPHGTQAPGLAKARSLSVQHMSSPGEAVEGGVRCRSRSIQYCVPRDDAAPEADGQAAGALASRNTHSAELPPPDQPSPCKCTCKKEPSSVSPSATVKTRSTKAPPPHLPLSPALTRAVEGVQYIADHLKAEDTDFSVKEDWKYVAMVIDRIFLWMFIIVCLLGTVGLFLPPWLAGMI

[9] = molecular target: T5, Alpha-2A adrenergic receptor (Homo sapiens, UniProt P08913); type: functional, cell-based
T5 sequence (P08913 whole entry): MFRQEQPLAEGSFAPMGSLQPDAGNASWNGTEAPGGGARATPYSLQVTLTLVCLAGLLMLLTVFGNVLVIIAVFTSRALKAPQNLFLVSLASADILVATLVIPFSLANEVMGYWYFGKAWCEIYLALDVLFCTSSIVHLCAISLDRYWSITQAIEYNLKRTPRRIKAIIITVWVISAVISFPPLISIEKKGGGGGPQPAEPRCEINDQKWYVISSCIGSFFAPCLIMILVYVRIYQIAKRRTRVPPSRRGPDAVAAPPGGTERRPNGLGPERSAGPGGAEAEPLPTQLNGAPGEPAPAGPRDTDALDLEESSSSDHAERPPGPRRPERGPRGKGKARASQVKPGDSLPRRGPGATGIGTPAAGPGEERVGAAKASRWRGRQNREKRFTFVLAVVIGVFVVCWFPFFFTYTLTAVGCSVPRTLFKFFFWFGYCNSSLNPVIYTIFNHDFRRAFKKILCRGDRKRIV

Histamine H3 receptor = Histamine H3 receptor (Homo sapiens, UniProt Q9Y5N1)
Sequence of Histamine H3 receptor (Q9Y5N1 whole entry): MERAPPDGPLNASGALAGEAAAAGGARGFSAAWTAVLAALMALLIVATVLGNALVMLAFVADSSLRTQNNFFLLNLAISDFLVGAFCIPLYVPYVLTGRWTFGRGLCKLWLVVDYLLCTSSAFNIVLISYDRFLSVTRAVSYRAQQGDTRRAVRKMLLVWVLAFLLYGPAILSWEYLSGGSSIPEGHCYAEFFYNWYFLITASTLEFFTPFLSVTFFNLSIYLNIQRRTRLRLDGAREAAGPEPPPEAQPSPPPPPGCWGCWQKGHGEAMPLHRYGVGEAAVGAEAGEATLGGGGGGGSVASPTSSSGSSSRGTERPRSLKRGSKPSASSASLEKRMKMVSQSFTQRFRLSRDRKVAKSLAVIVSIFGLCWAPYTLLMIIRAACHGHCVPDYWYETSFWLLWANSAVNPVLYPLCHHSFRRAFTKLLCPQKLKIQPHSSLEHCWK
Note: assay procedure not described here.

Sequence of Beta-1 adrenergic receptor (P08588 whole entry): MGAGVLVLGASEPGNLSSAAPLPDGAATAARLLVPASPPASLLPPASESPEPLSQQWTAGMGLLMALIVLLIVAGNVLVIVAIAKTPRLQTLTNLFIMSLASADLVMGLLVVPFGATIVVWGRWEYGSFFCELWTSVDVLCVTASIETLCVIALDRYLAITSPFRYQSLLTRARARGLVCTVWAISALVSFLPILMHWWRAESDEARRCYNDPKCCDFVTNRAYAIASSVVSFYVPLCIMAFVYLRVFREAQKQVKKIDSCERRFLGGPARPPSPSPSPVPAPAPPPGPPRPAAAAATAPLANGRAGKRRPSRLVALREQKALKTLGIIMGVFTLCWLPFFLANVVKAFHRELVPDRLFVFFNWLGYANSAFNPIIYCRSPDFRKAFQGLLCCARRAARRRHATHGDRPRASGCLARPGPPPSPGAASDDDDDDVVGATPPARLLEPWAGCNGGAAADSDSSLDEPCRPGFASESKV
Sequence of 5-hydroxytryptamine receptor 2A (P28223 whole entry): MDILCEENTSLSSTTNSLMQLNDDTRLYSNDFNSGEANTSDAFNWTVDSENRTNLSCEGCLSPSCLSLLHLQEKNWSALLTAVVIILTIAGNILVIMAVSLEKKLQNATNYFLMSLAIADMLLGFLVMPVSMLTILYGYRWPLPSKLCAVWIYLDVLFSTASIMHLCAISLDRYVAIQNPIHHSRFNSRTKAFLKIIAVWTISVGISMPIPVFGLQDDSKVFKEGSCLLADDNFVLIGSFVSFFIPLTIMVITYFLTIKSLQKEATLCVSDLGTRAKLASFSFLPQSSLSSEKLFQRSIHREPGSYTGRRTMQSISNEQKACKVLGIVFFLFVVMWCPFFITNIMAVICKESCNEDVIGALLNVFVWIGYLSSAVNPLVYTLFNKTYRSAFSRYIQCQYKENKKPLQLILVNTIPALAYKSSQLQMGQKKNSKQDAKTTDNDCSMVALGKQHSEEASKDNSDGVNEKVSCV
Sequence of Vasopressin V2 receptor (P30518 whole entry): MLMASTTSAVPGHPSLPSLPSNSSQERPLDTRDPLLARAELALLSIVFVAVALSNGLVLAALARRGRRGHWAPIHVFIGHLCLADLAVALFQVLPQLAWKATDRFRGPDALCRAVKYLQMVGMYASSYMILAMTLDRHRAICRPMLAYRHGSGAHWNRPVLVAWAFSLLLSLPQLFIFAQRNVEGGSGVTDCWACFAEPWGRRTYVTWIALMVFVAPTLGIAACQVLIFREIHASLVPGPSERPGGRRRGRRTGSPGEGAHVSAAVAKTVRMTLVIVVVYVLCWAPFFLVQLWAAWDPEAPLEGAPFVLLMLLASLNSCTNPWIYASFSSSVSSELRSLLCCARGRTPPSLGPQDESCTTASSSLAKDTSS
Sequence of 5-hydroxytryptamine receptor 2B (P41595 whole entry): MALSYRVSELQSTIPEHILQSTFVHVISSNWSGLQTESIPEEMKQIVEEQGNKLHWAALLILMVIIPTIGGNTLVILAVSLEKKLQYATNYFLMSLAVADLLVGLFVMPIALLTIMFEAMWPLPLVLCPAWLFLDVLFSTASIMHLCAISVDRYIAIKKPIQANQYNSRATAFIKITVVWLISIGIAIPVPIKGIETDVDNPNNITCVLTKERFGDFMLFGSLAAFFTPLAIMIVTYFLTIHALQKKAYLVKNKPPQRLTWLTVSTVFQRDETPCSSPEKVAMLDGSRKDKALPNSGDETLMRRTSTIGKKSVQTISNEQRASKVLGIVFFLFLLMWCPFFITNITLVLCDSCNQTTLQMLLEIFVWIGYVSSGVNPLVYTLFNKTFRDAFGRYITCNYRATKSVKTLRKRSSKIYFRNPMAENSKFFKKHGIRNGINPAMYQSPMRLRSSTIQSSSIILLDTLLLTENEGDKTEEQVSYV

| Structure (SMILES) | AC50 [1] [µM] | AC50 [2] [µM] | AC50 [3] [µM] | AC50 (Vasopressin V2 receptor) [µM] | AC50 (Histamine H1 receptor) [µM] | AC50 [4] [µM] | AC50 (D(1A) dopamine receptor) [µM] | AC50 [5] [µM] | AC50 [6] [µM] | AC50 [7] [µM] | AC50 [8] [µM] | AC50 [9] [µM] | AC50 (Histamine H3 receptor) [µM] |
| --- | --- | --- | --- | --- | --- | --- | --- | --- | --- | --- | --- | --- | --- |
| COC(=O)C1=C(C)NC(C)=C(C(=O)OC(C)C)C1c1cccc2nonc12 (stereo not given) [ISRADIPINE] | > 10 | > 10 | > 10 | > 30 | > 30 | > 30 | > 30 | > 30 | > 10 | > 30 | > 30 | > 10 |  |
| C[C@H]1C[C@@H]2[C@H]([C@@H](O)C[C@@]3(C)[C@H]2CC[C@]3(O)C(=O)COC(=O)CCC(=O)O)[C@@]2(C)C=CC(=O)C=C12 [METHYLPREDNISOLONE HEMISUCCINATE] | > 30 | > 30 | > 30 | > 30 | > 30 | > 30 | > 30 | > 30 | > 30 |  | > 30 | > 30 | > 30 |
| CCCCC(C)(O)C/C=C/[C@H]1[C@H](O)CC(=O)[C@@H]1CCCCCCC(=O)OC (stereo not given in full) [MISOPROSTOL] | > 30 | > 30 | > 30 | > 30 | > 30 | > 30 | > 30 | > 30 | > 30 |  | > 30 | > 30 | > 30 |
| CCCCCCCCOc1ccccc1C(=O)Nc1ccc(C(=O)OCC[N+](C)(CC)CC)cc1 [OTILONIUM BROMIDE] | 11 | 3.1 | 3.9 | 9.9 | 19 | 17 | > 30 | 2.9 | 11 |  | > 30 |  | 17 |
| CN1C(=O)CC(c2ccccc2)C1=O (stereo not given) [PHENSUXIMIDE] | > 10 | > 10 | > 10 | > 10 | > 10 | > 10 | > 10 | > 10 | > 10 |  | > 10 | > 10 | > 10 |
| C#CCN[C@@H]1CCc2ccccc21 [RASAGILINE] | > 30 | > 30 | > 30 | > 30 | > 30 | > 30 | > 30 | 8.79 | > 30 |  | > 30 | > 30 | > 30 |
| C1COC(NC(C2CC2)C2CC2)=N1 [RILMENIDINE] | > 10 | > 10 | > 30 | > 30 | > 10 | > 30 | > 10 | 7.5 | > 30 |  | > 10 | 2.6 | > 10 |
| CC(=O)NS(=O)(=O)c1ccc(N)cc1 [SULFACETAMIDE] | > 10 | > 10 | > 10 | > 10 | > 10 | > 10 | > 10 | > 10 | > 10 |  | > 10 | > 10 | > 10 |

Source: ChEMBL document CHEMBL5291721, “A preclinical secondary pharmacology resource illuminates target-adverse drug reaction associations of marketed drugs” (Nat Commun, 2023)
